Experimental data as given in US6147076A, “Analogues of N-acetylardeemin, method of preparation and uses thereof” (priority 1996, dated 2000).
Several values for one entry are separate records, joined by “and”; a condition that tells them apart may be missing. Identical values can stand only once. Like-named read-outs stand apart in the source and are kept apart here.

Assays:
[1] = apparently through calcium antagonism; cited from earlier work
CCRF-CEM cells [2] = test: IC50 of vinblastine in CCRF-CEM with/without MDR reversing agent; assay type: cell-based; settings: Homo sapiens, agent concentration added given in Table 6B, read-out: IC50 of VBL in the presence of reversing agent (A)
CCRF-CEM/VBL cells = test: IC50 of vinblastine in CCRF-CEM/VBL with/without MDR reversing agent; assay type: cell-based, human
P388/0 tumor = test: Combination therapy of adriamycin, vinblastine and des-Me-N-acetyl-ardeemin in B6D2F1 mice bearing P388/0 tumor; settings: VBL 3.0 mg/kg
Procedure: ^a Male BDF mice were inoculated with P388/O, 10^6 cell/mouse,
i.p. on day 0; and started treatment on day 1, i.p., Q5Dx5, besides mice
with dose VBL 3.0 and VBL 3.0 mg/kg + DMNAA 50 mg/kg, only one injection
i.p., on day 1. There were five mice at every dose and ten in the control

CCRF-CEM cells [3] = test: Two drug combination study of vinblastine and 5-N-acetylardeemin on CCRF-CEM, 72 hr, XTT assay; assay type: cell-based; settings: Homo sapiens, Table 2, drug alone, read-out: Dm (median-effect concentration)
Excerpt: CCRF-CEM Cell Line at 72-HR Exposure Time. Based on XTT

[4] = tested on: vinblastine-resistant CCRF-CEM cells (CCRF-CEM/VBL100); test: Two drug combination study of vinblastine and 5-N-acetylardeemin on vinblastine-resistant CCRF-CEM, 72 hr, XTT assay; assay type: cell-based, human; set-up: dose of drug at FA (drug alone): unit not given here; settings: for IC50: Homo sapiens, CCRF-CEM, Table 3, drug alone, read-out: Dm (median-effect concentration); for Dose reduction index / dose of drug at FA (drug alone): Table 3
CCRF-CEM/VM-1 cells [5] = settings: IC50 of VBL, CCRF-CEM/VM-1 to CCRF-CEM
CCRF-CEM cells [6] = test: Cytotoxicity / growth inhibition of CCRF-CEM leukemic cells; settings: Homo sapiens
[7] = tested on: vinblastine-resistant CCRF-CEM cells (CCRF-CEM/VBL100); test: Two drug combination study of vinblastine and 5-N-acetylardeemin on vinblastine-resistant CCRF-CEM, 72 hr, XTT assay; assay type: cell-based, human; settings: for dose reduction in combination: 1:2000 ratio, at 98.4% inhibition; for IC50: Homo sapiens, CCRF-CEM, Table 4 (large-scale study), drug alone, read-out: Dm (median-effect concentration)
Excerpt: Vinblastine-resistant CCRF-CEM Cell Line at 72-HR Exposure Time.
Based on XTT Assay. (large-scale study)

CCRF-CEM/VBL100 cells [8] = settings: human, ccrf-cem/vbl100 vs ccrf-cem
CCRF-CEM/VM-1 cells [9] = test: cells; settings: Homo sapiens, read-out: IC50 of VBL in the presence of reversing agent (C)
[10] = target: acyl CoA:cholesterol acyltransferase (ACAT); settings: read-out: Ki (with respect to oleoyl-CoA); cited from earlier work
DC-3F hamster lung cells = test: Cytotoxicity toward DC-3F hamster lung cells; settings: Mesocricetus auratus, DC3F
DC-3F/ADII cells [11] = test: cells; settings: Mesocricetus auratus, DC3F
cultured macrophages = settings: read-out: IC50, inhibition of cholesterol ester formation; cited from earlier work
Solubility = assay type: physicochemical; settings: at concentrations higher than […]
P388/DX tumor = test: Combination therapy of adriamycin & 5-N-acetyl-ardeemin or verapamil in B6D2F1 mice bearing P388/DX tumor;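 note: male BDF mice implanted intraperitoneally with P388/DX cells, 10^6 per mouse, dosed from day 1 on a QDX4, QWX2 schedule, five mice per dose group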; settings: 5NAc-Ard. 70 mg/kg
Excerpt: ^a Male BDF mice were inoculated P388/DX, 10^6 cells/mouse, i.p.
starting day 1, QDX4, QWX2. There were five mice at every dose and ten

[12] = Cytotoxicity (XTT, 72 hr) in HCT116 cells; settings: human
Procedure: All drug exposures were for 72 hr and cytotoxicity was measured by XTT tetrazolium dye assay.

P388 leukemic cells = test: Drug combination of adriamycin and 5-N-acetyl-ardeemin against P388 cell growth (XTT); settings: Mus musculus, P388, drug alone
Excerpt: microplate, 15,000 cell/well, N = 2. Platting cells on day 1, add drugs o
day 2 and XTT assay on day 5.

P388/0 = test: Survival time evaluation for BDF mice bearing P388/0; settings: for survival time: individual mice
Excerpt: ^a Male BDF mice were inoculated with p388/0, 10E6 cells/mouse, I.P.

DC-3F/ADII cells [13] = tested on: DC-3F/ADII cells
CCRF-CEM cells [14] = test: Intracellular accumulation of [3H]vinblastine in CCRF-CEM cells; assay type: cell-based, human; settings: 30 μM
Procedure: (§1) *Cells were preloaded with [^3 H]
(§2) times (or without wash) with 100 ml cold medium to remove extracellular
(§3) with or without a reverse prenyl compound or an MDRreversing agent. Cells
(§4) were then separated from radioactive medium by microfuge oillayer method.
(§5) Extracellular space counts carried down # by cells (^3 HInulin space
(§6) were subtracted from the total radioactive counts.

CCRF-CEM cells [15] = test: Influx of [3H]VP-16 in CCRF-CEM cells; assay type: cell-based, human; settings: Homo sapiens, CCRF-CEM, 0.5 h, read-out: increase of VP-16 accumulation
CCRF/VM-1 cells = test: Intracellular accumulation of VP-16 in CCRF/VM-1 cells; settings: Homo sapiens, 0.5 h, read-out: increase of VP-16 accumulation
P388/O tumor = test: Combination therapy of adriamycin & 5-N-acetyl-ardeemin or verapamil in B6D2F1 mice bearing P388/O tumor; settings: 5NAc-Ardm 70 mg/kg;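 note: male BDF mice carrying P388/O given intraperitoneally, dosing begun on day 1 on a QDX4, QWX2 schedule, five animals per dose level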
Excerpt: ^a Male BDF mice were inoculated P388/O, 10^6 cells/mouse, i.p. a
starting day 1, QDX4, QWX2.

CCRF-CEM/VLB-100 cells = test: Intracellular accumulation of [3H]vinblastine in CCRF-CEM/VLB-100 cells; assay type: cell-based, human; settings: 30 μM
Procedure: as §1, §2, §3, §4, §5, §6

CCRF-CEM cells [16] = test: Accumulation of VP-16 in CCRF-CEM cells preloaded with [3H]VP-16; settings: Homo sapiens, 0.5 h, read-out: increase of intracellular accumulation of VP-16
P388/DX = test: Survival time evaluation for BDF mice bearing P388/DX; settings: for survival time: individual mice
P388/DX leukemic cells = test: Drug combination of adriamycin and 5-N-acetyl-ardeemin against P388/DX cell growth (XTT); assay type: cell-based; settings: drug alone
Excerpt: | microplate, 25,000 cell/well, N = 2.

CCRF-CEM/VM-1 cells [17] = test: Cytotoxicity toward VM-26-resistant CCRF-CEM/VM-1 cells (mutated Topo II gene); assay type: cell-based, human; settings: Homo sapiens, CCRF-CEM, read-out: IC50 of reversing agent
DC-3F/ADX cells = test: Cytotoxicity toward DC-3F/ADX cells; assay type: cell-based, hamster
CCRF-CEM/VBL100 cells [18] = test: cells; settings: Homo sapiens
[19] = tested on: KBV-1 (vinblastine resistant) tumor cell lines; settings: in words; cited from earlier work
[20] = read-out: IC50 for inhibiting cell growth, Table 7, DC-3F
[21] = read-out: IC50 for inhibiting cell growth, Table 7, DC-3F/SDII

C=CC(C)(C)[C@@]12C[C@H]3C(=O)N4[C@@H](C[C@@]5(C(C)(C)C=C)c6ccccc6N[C@@H]45)C(=O)N3[C@@H]1Nc1ccccc12 [Amauromine, amauromine]
vasodilator activity [1]: vasodilator

CC[C@]1(O)C[C@@H]2CN(CCc3c([nH]c4ccccc34)[C@@](C(=O)OC)(c3cc4c(cc3OC)N(C)[C@H]3[C@@](O)(C(=O)OC)[C@H](OC(C)=O)[C@]5(CC)C=CCN6CC[C@]43[C@@H]65)C2)C1 [Vinblastine]
IC50 (CCRF-CEM cells [2]): 0.00083 µM
IC50 (CCRF-CEM/VBL cells; Homo sapiens, CCRF-CEM, agent concentration added given in Table 6B, read-out: IC50 of VBL in the presence of reversing agent (B)): 0.832 µM
(b)/(a) (CCRF-CEM/VBL cells; IC50 of VBL, CCRF-CEM/VBL to CCRF-CEM): 761
% ILS (P388/0 tumor; one injection): +64%
Days survived (P388/0 tumor; one injection, individual mice 1-5, listed as VBL): 5.0 days and 6.0 days and 9.5 days and 15.5 days and 16.0 days
MST (P388/0 tumor; one injection, toxic deaths excluded): 13.67 days
deaths of toxicity (P388/0 tumor; day 5 and 6): Two mice died of toxicity of drug
IC50 (CCRF-CEM cells [3]): 0.00168 µM
IC50 [4]: 0.371 µM
Dose reduction index ([4]; FA .9843): 41.85
dose of drug at FA (drug alone) ([4]; FA .9843): 2.092
Dose reduction index ([4]; FA .9861): 22.03
dose of drug at FA (drug alone) ([4]; FA .9861): 2.203
Dose reduction index ([4]; FA .9898): 10.05
dose of drug at FA (drug alone) ([4]; FA .9898): 2.512
(C)/(A) (CCRF-CEM/VM-1 cells [5]): 0.54
IC50 (CCRF-CEM cells [6]; wild type CCRF-CEM): 0.0017 µM
dose reduction in combination [7]: 41 fold
IC50 [7]: 0.393 µM
resistance of CCRF-CEM/VBL100 compared with CCRF-CEM (CCRF-CEM/VBL100 cells [8]): 220 fold
IC50 (CCRF-CEM/VM-1 cells [9]): 0.00045 µM

C=CC(C)(C)C12Nc3ccccc3C1(O)CC1C(=O)N3C(CC4(O)c5ccccc5NC34C(C)(C)C=C)C(=O)N12 (stereo not drawn) [Gypsetin]
Ki [10]: 5.5 µM
IC50 (DC-3F hamster lung cells; [20]): 3.78 µM
IC50 (DC-3F/ADII cells [11]; read-out: IC50 for inhibiting cell growth): 2.25 µM
IC50 (cultured macrophages): 0.65 µM

C=CC(C)(C)C12CC3c4nc5ccccc5c(=O)n4C(C)C(=O)N3C1N(C(C)=O)c1ccccc12 (stereo not drawn) [5-N-Acetylardeemin]
solubility (Solubility): diminished solubility
% ILS (P388/DX tumor): 0%
MST (P388/DX tumor): 7.55 days
Days survived (P388/DX tumor; individual mice 1-5): 6.5 days and 7.25 days and 8.0 days
MNTC at 72 h [12]: ≥ 2200 nM
IC50 (P388 leukemic cells): 43.7 µM
% ILS (P388/0; 5N-acetylardeemin 3.33 mg/kg): -2%
MST (P388/0; 5N-acetylardeemin 3.33 mg/kg): 7.25
survival time (P388/0; 5N-acetylardeemin 3.33 mg/kg): 6.0 and 7.0 and 8.0
% ILS (P388/0; 5N-acetylardeemin 10 mg/kg): -10%
MST (P388/0; 5N-acetylardeemin 10 mg/kg): 6.67
survival time (P388/0; 5N-acetylardeemin 10 mg/kg): 60. and 6.5 and 7.5
% ILS (P388/0; 5N-acetylardeemin 30 mg/kg): -16%
MST (P388/0; 5N-acetylardeemin 30 mg/kg): 6.25
survival time (P388/0; 5N-acetylardeemin 30 mg/kg): 6.0 and 6.5
(B)/(A) (DC-3F/ADII cells [13]; IC50 ratio DC-3F/ADII to DC-3F, * collaterally sensitive): 2.2 X
IC50 (DC-3F/ADII cells [13]; [21]): 1.59 µM
[3H]vinblastine accumulation (CCRF-CEM cells [14]; washed): 32.73 fmole/10^3 cells
[3H]vinblastine accumulation (CCRF-CEM cells [14]; without wash): 37.45 fmole/10^3 cells
activation at 30 µM (CCRF-CEM cells [15]): 66%
fold induction at 30 µM (CCRF/VM-1 cells): 1.95
% ILS (P388/O tumor): +2%
MST (P388/O tumor): 7.75 days
Days survived (P388/O tumor; individual mice 1-5): 8.5 days and 7.0 days and 8.25 days and 6.5 days
[3H]vinblastine accumulation (CCRF-CEM/VLB-100 cells; washed): 12.78 fmole/10^3 cells
[3H]vinblastine accumulation (CCRF-CEM/VLB-100 cells; without wash): 35.44 fmole/10^3 cells
IC50 (DC-3F hamster lung cells; read-out: IC50 (A), mean ± spread, mean of the determinations): 7.51 ± 2.58 µM
IC50 (DC-3F hamster lung cells; [20]): 3.74 µM
IC50 (DC-3F hamster lung cells; relative cytotoxicity, DC-3F): 5.06 µM
fold induction at 30 µM (CCRF-CEM cells [16]): 3.9
IC50 (CCRF-CEM cells [3]): 18.8 µM
% ILS (P388/DX; 5N-acetylardeemin 3.33 mg/kg): 5%
MST (P388/DX; 5N-acetylardeemin 3.33 mg/kg): 7.63
survival time (P388/DX; 5N-acetylardeemin 3.33 mg/kg): 6.5 and 7.0 and 8.0 and 9.0
% ILS (P388/DX; 5N-acetylardeemin 10 mg/kg): 2%
MST (P388/DX; 5N-acetylardeemin 10 mg/kg): 7.42
survival time (P388/DX; 5N-acetylardeemin 10 mg/kg): 7.0 and 7.25 and 8.0
% ILS (P388/DX; 5N-acetylardeemin 30 mg/kg): -7%
MST (P388/DX; 5N-acetylardeemin 30 mg/kg): 6.75
survival time (P388/DX; 5N-acetylardeemin 30 mg/kg): 6.5 and 7.0
IC50 [4]: 19.4 µM
Dose reduction index ([4]; FA .9843): 55.57
dose of drug at FA (drug alone) ([4]; FA .9843): 555.6899
Dose reduction index ([4]; FA .9861): 61.43
dose of drug at FA (drug alone) ([4]; FA .9861): 614.2689
Dose reduction index ([4]; FA .9898): 79.19
dose of drug at FA (drug alone) ([4]; FA .9898): 791.8969
IC50 (P388/DX leukemic cells): 65.9 µM
IC50 (DC-3F/ADII cells [11]; read-out: IC50 (B), DC-3F/ADII): 16.8 µM
IC50 (DC-3F/ADII cells [11]; [21]): 1.07 µM
IC50 (CCRF-CEM/VM-1 cells [17]): 39.4 µM
IC50 (CCRF-CEM cells [6]; Table 6, CCRF-CEM): 17.2 µM
IC50 (CCRF-CEM cells [6]; human leukemic CCRF-CEM cells): 29.8 µM
IC50 (CCRF-CEM cells [6]; read-out: IC50 of reversing agent, Table 6B, CCRF-CEM): 29.2 µM
dose reduction in combination [7]: 55 fold
IC50 [7]: 29.8 µM
IC50 (DC-3F/ADX cells; DC3F/ADX, DC-3F/ADX): 3.69 µM
(C)/(A) (DC-3F/ADX cells; IC50 ratio DC-3F/ADX to DC-3F, * collaterally sensitive): 0.49 X
IC50 (CCRF-CEM/VBL100 cells [18]; Table 6, CCRF-CEM/VBL): 6.99 µM
IC50 (CCRF-CEM/VBL100 cells [18]; read-out: IC50 of reversing agent, Table 6B, CCRF-CEM/VBL): 18.1 µM
reversal of multidrug resistance [19]: one of the most potent known agents for reversal of multidrug resistance
